For 53 molecules, melting point results are on record in patent US20070059364A1, “Active substance combination comprising a compound with npy receptor affinity and a compound with 5-ht6 receptor affinity” (Laboratorios Del Dr. Esteve S.A., priority 2003, published 2007).

On to `Cl.O=C(CN1CCC(N2C(=O)OCc3ccccc32)CC1)Nc1cccc(C(=O)c2ccccc2)c1`, for which the melting point (usually the temperature of the solid-liquid transition) was in the range of 214 to 218 °C.

`Cc1ccc2c(c1)COC(=O)N2C1CCN(CC(=O)Nc2ccc3c(c2)C(=O)c2ccccc2-3)CC1.Cl` came in with a melting point of 281 to 285 °C.

Take `CCN(CC)CCc1c[nH]c2ccc(NS(=O)(=O)c3cc(Cl)cc(Cl)c3)cc12` [Example 4c, N-[3-(2-diethylaminoethyl)-1H-indol-5-yl]-3,5-dichlorobenzenesulphonamide]: the melting point is 168 to 170 °C.

For `CCn1c2ccccc2c2cc(NC(=O)CN3CCC(N4C(=O)OCc5cccc(C)c54)CC3)ccc21.Cl`, the melting point lay within 229 to 232 °C.

Molecule `O=C(CN1CCC(N2C(=O)OCc3ccccc32)CC1)Nc1cccc2c1-c1ccccc1C2O` (centres unmarked) returned a melting point of 209 to 210 °C.

For the molecule `Cc1cccc2c1N(C1CCN(CC(=O)Nc3ccc(Cl)cc3)CC1)C(=O)OC2.Cl`, the melting point lay within 245 to 253 °C.

Take `Cc1ccc2c(c1)COC(=O)N2C1CCN(CC(=O)Nc2ccc3c(c2)C(O)c2ccccc2-3)CC1.Cl` (centres unmarked): the melting point was in the range of 196 to 199 °C.

For the molecule `CCN(CC)CCCc1c[nH]c2ccc(NS(=O)(=O)c3ccc4ccccc4c3)cc12` [Example 42c, N-[3-(3-diethylaminopropyl)-1H-indol-5-yl]naphthalene-2-sulphonamide], the melting point fell in the range of 128 to 130 °C.

The molecule `CN(C)CCn1ccc2cc(NS(=O)(=O)c3cccc([N+](=O)[O-])c3)ccc21` [Example 14e, N-[1-(2-dimethylaminoethyl)-1H-indole-5-yl]-3-nitrobenzenesulfonamide] had a melting point of 138 to 140 °C.

Consider `CN(C)CCn1ccc2cc(NS(=O)(=O)c3c(Cl)nc4sccn34)ccc21` [Example 11e, N-[1-(2-dimethylaminoethyl)-1H-indole-5-yl]-6-chloroimidazo[2,1-b]thiazole-5-sulfonamide], for which the melting point fell in the range of 50 to 52 °C.

Turning to `Cc1c(S(=O)(=O)Nc2ccc3c(ccn3CCCN3CCCCC3)c2)sc2ccc(Cl)cc12` [Example 43e, 5-chloro-3-methyl-N-(1-(3-(piperidin-1-yl)propyl)-1H-indol-5-yl)benzo[b]thiophene-2-sulfonamide], the melting point fell in the range of 82 to 92 °C.

In turn, `Cl.O=C(CN1CCC(N2C(=O)OCc3cc(Cl)ccc32)CC1)Nc1ccc(C2CCCCC2)cc1` yielded a melting point of 249 to 256 °C.

Consider `Cc1cccc2c1N(C1CCN(CC(=O)Nc3ccc(C4CCCCC4)cc3)CC1)C(=O)OC2.Cl`, for which the melting point fell in the range of 249 to 253 °C.

`Cl.O=C(CN1CCC(N2C(=O)OCc3ccccc32)CC1)Nc1ccc2c(c1)C(=O)c1ccccc1C2=O` showed a melting point of 280 to 282 °C.

With `CN1CCC(c2c[nH]c3ccc(NS(=O)(=O)c4cccc5cccnc45)cc23)CC1` [Example 16c, N-[3-(1-methylpiperidin-4-yl)-1H-indol-5-yl]quinoline-8-sulphonamide], the melting point is 280 °C (dec.).

The molecule `Cl.Cn1c2ccccc2c2cc(NC(=O)CN3CCC(N4C(=O)OCc5ccccc54)CC3)ccc21` gave a melting point of 191 to 193 °C.

`CCCCN(CCCC)CCc1c[nH]c2ccc(NS(=O)(=O)c3cccc4ccccc34)cc12` came in with a melting point of 111 to 113 °C.

On to `CN1CC=C(c2c[nH]c3ccc(NS(=O)(=O)c4cccc5ccccc45)cc23)CC1`, for which the melting point is 244 to 245 °C (dec.).

Consider `CCN(CC)CCn1ccc2cc(NS(=O)(=O)c3c(Cl)nc4sccn34)ccc21` [Example 27e, N-[1-(2-diethylaminoethyl)-1H-indole-5-yl]-6-chloroimidazo[2,1-b]thiazole-5-sulfonamide], for which the melting point was in the range of 68 to 70 °C.

`Cc1c(S(=O)(=O)Nc2ccc3[nH]cc(CN(C)C)c3c2)sc2ccc(Cl)cc12` [Example 30c, N-[3-dimethylaminomethyl-1H-indol-5-yl]-5-chloro-3-methylbenzo[b]thiophene-2-sulphonamide] came in with a melting point of 148 to 152 °C.

As to `CCN(c1ccccc1)c1ccc(NC(=O)CN2CCC(N3C(=O)OCc4ccccc43)CC2)cc1.Cl`, the melting point lay within 254 to 257 °C.

With `Cl.O=C(CN1CCC(N2C(=O)OCc3ccccc32)CC1)Nc1ccc2c(c1)CCC2=O`, the melting point fell in the range of 272 to 277 °C.

The molecule `CN1CCC(c2c[nH]c3ccc(NS(=O)(=O)c4cccc5ccccc45)cc23)CC1` [Example 12c, N-[3-(1-methylpiperidin-4-yl)-1H-indol-5-yl]naphthalene-1-sulphonamide] gave a melting point of 254 to 256 °C.

Take `Cc1c(S(=O)(=O)Nc2cccc3c2ccn3CCN(C)C)sc2ccc(Cl)cc12` [Example 1d, N-[1-(2-dimethylaminoethyl)-1H-indole-4-yl]-5-chloro-3-methyl-benzo[b]thiophene-2-sulfonamide]: the melting point fell in the range of 78 to 80 °C.

`CCN(CC)CCc1c[nH]c2ccc(NS(=O)(=O)/C=C/c3ccccc3)cc12` displayed a melting point of 125 to 130 °C.

`Cc1ccc2c(c1)COC(=O)N2C1CCN(CC(=O)Nc2ccccc2)CC1` gave a melting point of 154 to 157 °C.

Turning to `Cl.O=S(=O)(C1CCCCC1)n1cc(C2=CCN3CCCC3C2)c2cc(F)ccc21` (centres unmarked) [Example 4h, 1-Cyclohexanesulfonyl-5-fluoro-3-(1,2,3,5,8,8a-hexahydro-indolizine-7-yl)-1H-indole hydrochloride], the melting point was 263 °C (dec.).

As for `CN(C)CCn1ccc2cc(NS(=O)(=O)c3cc(Cl)cc(Cl)c3)ccc21` [Example 12e, N-[1-(2-dimethylaminoethyl)-1H-indole-5-yl]-3,5-dichlorobenzenesulfonamide], the melting point was in the range of 124 to 126 °C.

`CN(C)CCn1ccc2cc(NS(=O)(=O)c3cccc4cccnc34)ccc21` [Example 6e, N-[1-(2-dimethylaminoethyl)-1H-indole-5-yl]-quinoline-8-sulfonamide] came in with a melting point of 161 to 164 °C.

The molecule `Cc1c(S(=O)(=O)Nc2ccc3c(ccn3CCN3CCCC3)c2)sc2ccc(Cl)cc12` [Example 18e, N-[1-(2-pyrrolidine-1-yl-ethyl)-1H-indole-5-yl]-5-chloro-3-methylbenzo[b]thiophene-2-sulfonamide] yielded a melting point of 156 to 158 °C.

In turn, `CCN(CC)CCn1ccc2cc(NS(=O)(=O)c3ccc4ccccc4c3)ccc21` yielded a melting point of 97 to 104 °C.

The molecule `CCN(CC)CCc1c[nH]c2ccc(NS(=O)(=O)c3sc4ccc(Cl)cc4c3C)cc12` [24e] had a melting point of 53 to 56 °C.

`Cl.O=C(CN1CCC(N2C(=O)OCc3ccccc32)CC1)Nc1ccc(C(F)(F)F)cc1` showed a melting point of 276 to 284 °C.

Take `Cc1ccc2c(c1)N(C1CCN(CC(=O)Nc3ccc4c(c3)-c3ccccc3C4O)CC1)C(=O)OC2` (centres unmarked): the melting point is 136 °C.

With `CCN(CC)CCc1c[nH]c2ccc(NS(=O)(=O)c3c(Cl)nc4sccn34)cc12`, the melting point was in the range of 197 to 198 °C.

Take `CCCN(CCC)CCc1c[nH]c2ccc(NS(=O)(=O)c3ccc4ccccc4c3)cc12`: the melting point is 58 to 64 °C (dec.).

`Cc1ccc2c(c1)COC(=O)N2C1CCN(CC(=O)Nc2ccc3c(c2)-c2ccccc2C3O)CC1.Cl` (centres unmarked) yielded a melting point of 238 to 241 °C.

`CN1CC=C(c2cn(S(=O)(=O)C3CCCCC3)c3ccc([N+](=O)[O-])cc23)CC1` [Example 1h, 1-Cyclohexanesulfonyl-3-(1-methyl-1,2,3,6-tetrahydropyridine-4-yl)-5-nitro-1H-indole] came in with a melting point of 155 to 160 °C.

In the case of `Cc1cccc2c1N(C1CCN(CC(=O)Nc3ccc(C(=O)c4ccccc4)cc3)CC1)C(=O)OC2.Cl`, the melting point is 217 °C.

Take `CCN(CC)CCc1c[nH]c2ccc(NS(=O)(=O)c3cccc4ccccc34)cc12`: the melting point was determined as 170 °C.

On to `CN(C)CCn1ccc2cc(NS(=O)(=O)c3ccc4ccccc4c3)ccc21`, for which the melting point was 54 to 57 °C.

For the molecule `Cc1cccc2c1N(C1CCN(CC(=O)Nc3ccccc3)CC1)C(=O)OC2.Cl`, the melting point is 232 to 239 °C.

`Cc1cccc2c1COC(=O)N2C1CCN(CC(=O)Nc2ccc3[nH]c4ccccc4c3c2)CC1` came in with a melting point of 213 °C.

Regarding `CN(C)CCn1ccc2cc(NS(=O)(=O)c3ccc(Cl)s3)ccc21` [Example 9e, N-[1-(2-dimethylaminoethyl)-1H-indole-5-yl]-5-chlorothiophene-2-sulfonamide], the melting point was in the range of 145 to 147 °C.

The molecule `CN1CC=C(c2cn(S(=O)(=O)C3CCCCC3)c3ccc(Cl)cc23)CC1` [Example 2h, 5-Chloro-1-cyclohexanesulfonyl-3-(1-methyl-1,2,3,6-tetrahydropyridine-4-yl)-1H-indole] displayed a melting point of 88 to 90 °C.

Molecule `O=S(=O)(Nc1ccc2c(ccn2CCCN2CCCCC2)c1)c1ccc2ccccc2c1` came in with a melting point of 92 to 108 °C.

In turn, `CCn1c2ccccc2c2cc(NC(=O)CN3CCC(N4C(=O)OCc5cc(Cl)ccc54)CC3)ccc21.Cl` showed a melting point of 265 to 268 °C.

As for `Cc1c(S(=O)(=O)Nc2ccc3[nH]cc(CCN4CCOCC4)c3c2)sc2ccc(Cl)cc12`, the melting point lay in the range of 200 to 201 °C.

As for `Cc1c(S(=O)(=O)Nc2cccc3ccn(CCN4CCCC4)c23)sc2ccc(Cl)cc12` [Example 5g, 5-chloro-3-methyl-N-(1-(2-(pyrrolidin-1-yl)ethyl)-1H-indol-7-yl)-benzo[b]thiophen-2-sulfonamide], the melting point lay in the range of 82 to 85 °C.

In the case of `Cc1cc2cc(NS(=O)(=O)c3ccc(Oc4ccccc4)cc3)ccc2n1CCN(C)C` [Example 38e, N-(1-(2-(dimethylamino)ethyl)-2-methyl-1H-indol-5-yl)-4-phenoxy-benzenesulfonamide], the melting point is 147 to 149 °C.

For the molecule `CN(C)CCc1c[nH]c2ccc(NS(=O)(=O)c3cccc4nsnc34)cc12`, the melting point stood at 192 °C.

The molecule `CCN(CC)CCc1c[nH]c2ccc(NS(=O)(=O)c3ccc4ccccc4c3)cc12` [Example 17c, N-[3-(2-diethylaminoethyl)-1H-indol-5-yl]naphthalene-2-sulphonamide] registered a melting point of 172 to 173 °C.

In turn, `CN(C)CCn1ccc2cc(NS(=O)(=O)c3ccc(Oc4ccccc4)cc3)ccc21` [Example 7e, N-[1-(2-dimethylaminoethyl)-1H-indole-5-yl]-4-phenoxybenzenesulfonamide] yielded a melting point of 138 to 140 °C.
